We go through 20 compounds from patent publication US8044198B2, “Sirtuin modulating compounds” (Sirtris Pharmaceuticals, Inc., priority 2005, dated 2011).

Test [1] has as its target T1, SIRT1 (Homo sapiens, UniProt Q96EB6).
T1 sequence (Q96EB6 1-747): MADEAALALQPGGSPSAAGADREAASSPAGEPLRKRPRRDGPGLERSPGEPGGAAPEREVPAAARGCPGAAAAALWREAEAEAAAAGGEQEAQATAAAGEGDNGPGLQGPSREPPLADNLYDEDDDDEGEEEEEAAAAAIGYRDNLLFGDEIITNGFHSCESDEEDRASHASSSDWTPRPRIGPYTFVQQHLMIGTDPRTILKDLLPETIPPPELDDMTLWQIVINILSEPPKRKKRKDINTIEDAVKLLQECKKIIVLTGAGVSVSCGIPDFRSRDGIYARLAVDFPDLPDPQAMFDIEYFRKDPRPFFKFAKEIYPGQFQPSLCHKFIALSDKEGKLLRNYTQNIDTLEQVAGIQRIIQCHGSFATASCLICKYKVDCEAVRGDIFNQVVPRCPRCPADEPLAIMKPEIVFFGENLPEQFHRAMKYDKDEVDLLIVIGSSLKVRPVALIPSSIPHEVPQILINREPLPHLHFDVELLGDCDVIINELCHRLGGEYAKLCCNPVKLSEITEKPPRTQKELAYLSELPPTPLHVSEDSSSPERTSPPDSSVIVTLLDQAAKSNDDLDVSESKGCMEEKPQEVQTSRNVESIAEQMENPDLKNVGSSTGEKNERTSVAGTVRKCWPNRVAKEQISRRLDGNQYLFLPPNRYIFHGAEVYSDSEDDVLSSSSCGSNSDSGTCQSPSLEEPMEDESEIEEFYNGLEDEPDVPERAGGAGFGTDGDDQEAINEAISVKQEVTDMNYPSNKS
Kind of test: SIRT1 fluorescence polarization (FP) deacetylation assay with p53-based peptide substrates. Format: biochemical. The note with it: Sirt1 Inhibitors. The procedure: A fluorescence polarization or mass spectrometry based assay was used to identify modulators of SIRT1 activity. The same assay may be used to identify modulators of any sirtuin protein. The fluorescence polarization assays utilizes one of two different peptides based on a fragment of p53, a known sirtuin deacetylation target. Compounds 1-18 were tested using a substrate containing peptide 1 having 14 amino acid residues as follows: […](Ac)NleSTEG (SEQ ID NO: 1) wherein K(Ac) is an acetylated lysine residue and Nle is a norleucine. The peptide is labeled with the fluorophore MR121 (excitation 635 nm/emission 680 nm) at the C-terminus and biotin at the N-terminus. The sequence of the peptide substrate is based on p53 with several modifications. In particular, all arginine and leucine residues other than the acetylated lysine have replaced with serine so that the peptide is not susceptible to trypsin cleavage in the absence of deacetylation. In addition, the methionine residue naturally present in the sequence has been replaced with the norleucine because the methionine may be susceptible to oxidation during synthesis and purification. […] This peptide is labeled with the fluorophore MR121 (excitation 635 nm/emission 680 nm) at the C-termini and biotin at the N-termini. The sequence of the peptide substrates are based on p53 with several modifications. In particular, all arginine and leucine residues other than the acetylated lysine residues have replaced with serine so that the peptides are not susceptible to trypsin cleavage in the absence of deacetylation. In addition, the methionine residues naturally present in the sequences have been replaced with the norleucine because the methionine may be susceptible to oxidation during synthesis and purification. […] The peptide is labeled with the fluorophore 5TMR (excitation 540 nm/emission 580 nm) at the C-terminus. The sequence of the peptide substrate is also based on p53 with several modifications. In addition, the methionine residue naturally present in the sequence was replaced with the norleucine because the methionine may be susceptible to oxidation during synthesis and purification.
The peptide substrates were exposed to a sirtuin protein in the presence of NAD^+ to allow deacetylation of the substrate and render it sensitive to cleavage by trypsin. Trypsin was then added and the reaction was carried to completion (i.e., the deacetylated substrate is cleaved) releasing the MR121 or 5TMR fragment. Streptavidin is then added to the reaction where it can bind both the uncleaved substrate (i.e., any remaining acetylated substrate) and the non-fluorescent portion of the cleaved peptide substrate (i.e., the biotin containing fragment). The fluorescence polarization signal observed for the full length peptide substrates bound to streptavidin was higher than the fluorescence polarization signal observed for the released MR121 or 5TMR C-terminal fragment. In this way, the fluorescence polarization obtained is inversely proportional to the level of deacetylation (e.g., the signal is inversely proportional to the activity of the sirtuin protein). Results were read on a microplate fluorescence polarization reader (Molecular Devices Spectramax MD) with appropriate excitation and emission filters.
The fluorescence polarization assays using peptide 1 was conducted as follows: 0.5 μM peptide substrate and 150 μM βNAD^+ is incubated with 0.1 μg/mL of SIRT1 for 60 minutes at 37° C. in a reaction buffer (25 mM Tris-acetate pH8, 137 mM Na—Ac, 2.7 mM K—Ac, 1 mM Mg—Ac, 0.05% Tween-20, 0.1% Pluronic F127, 10 mM CaCl2, 5 mM DTT, 0.025% BSA, 0.15 mM Nicotinamide). Test compounds 1-18 were solubilized in DMSO and added to the reaction at 11 concentrations ranging from 0.7 μM to 100 μM. […]

Test [2] addresses T1, SIRT1. Description: SIRT1 mass spectrometry (MS) based deacetylation assay. Format: biochemical. Particulars: for pEC50: SIRT1 activation, mass spectrometry assay, read-out: ED50 MS ASSAY; for FOLD ACT. MS: fold activation of SIRT1 as determined by MS.
The test system of another test is NCI-H358 cells. Description: Cellular ATP Assay (ATPLite 1Step normalized to AlamarBlue viability). The class given is cell-based. Particulars: Homo sapiens; for pIC50: compounds that lowered intracellular ATP levels; for pEC50: compounds that raised intracellular ATP levels, read-out: ED50 ATP ASSAY. On the procedure: Cellular ATP levels are an indirect measurement of cellular metabolic rates and, by extension, mitochondrial function. […] The ATP assay is combined with a cellular viability assay so that cellular ATP levels can be normalized to viable cells. Cellular ATP levels were measured using the ATPLite 1Step Kit (PerkinElmer) and cellular viability was measured using the cell permeable dye, AlamarBlue™.
The Cellular ATP Assay is a multiplexed assay that measures both ATP levels and viability of a given cell sample. This assay is run in a 96-well Assay Plate and data are reported as the [ATP]/viability for each well in the Assay Plate.
The ATPLite 1 Step™ Kit is a single-step luminescent cell-based assay for detection of ATP. The kit contains lyophilized substrate mixture, comprised of D-luciferin and the firefly (Photinus pyralis) enzyme luciferase. Additionally, the kit contains a detergent-based reconstitution buffer that induces the lysis of cellular membranes. The luciferase in the assay mixture catalyzes a reaction between the free cellular ATP and D-luciferin to produce bioluminescence according to the schematic reaction outlined below. The amount of light produced is proportional to the cellular ATP concentration.
The AlamarBlue™ Assay is a single-step assay that utilizes a soluble, non-toxic, cell permeable dye that is added to cell growth media. This dye undergoes electron reduction in viable cells but not dead cells. The reduced dye product gives a fluorescent signal which can be monitored with a fluorescence plate reader (excitation 545 nm and emission 575 nm). The amount of fluorescence generated in a given well is proportional to the number of viable cells. The viability signal generated by this assay is used to normalize the ATP signal from the ATPLite 1Step™ assay results.
The material was dissolved in 100% vehicle (DMSO) to yield a final concentration of 10 mM (stock solution). The stock solution was serially diluted with 100% DMSO as described in SOP 7.10.
In this assay NCI-H358 cells (obtained from the American Tissue Culture Collection, ATCC) were seeded in 96 well microplates (10^4 cells/well). The NCI-H358 Growth Culture Media consists of RPMI 1640 Media supplemented with 10% FBS, […] streptomycin, and 100 units/mL penicillin. […] After 48 hours of compound treatment under cell growth conditions, plates were removed from incubator, and 15 μl of AlamarBlue™ dye was added to each well. Cell microplates were incubated with dye for 2 hours under growth conditions, and fluorescence was subsequently measured using a plate reader. Media containing AlamarBlue™ was removed, and plates were washed in 100 μl of PBS per well. This wash was removed, and 200 μl of 1×ATPLite 1Step reagent was added to each well. Luminescence was then measured using a plate reader. The ATP signal for each well, measured by the luminescence scan, was normalized to its corresponding cell viability value, measured by the fluorescence scan, to generate the average ATP level per viable cell unit (ATP/vCell). The ATP/vCell for each treatment was then normalized to the average vehicle ATP/vCell for its respective cell microplate, yielding the normalized ATP/vCell (norm. ATP/vCell). Finally, the norm. ATP/vCell for each unique treatment was averaged across plate replicates, generating the average norm. ATP/vCell.
Each of these ATP levels was normalized to the cell viability in the corresponding treatment well, generating the ATP/vCell value. Each ATP/vCell value was subsequently normalized to its average Vehicle ATP/vCell values for its respective cell microplate.
Data are represented as the normalized ATP/vCell (arbitrary units). […] These values represent an average of three plate replicates.
A number of compounds were screened for their affect on ATP levels in the assay as described in Example 5. […] NA means that the compound was not tested using the indicated assay.

Molecules are shown by their SMILES. pEC50, pIC50: −log10 of the molar value. Bounds are passed on as bounds.

As usually defined, the pIC50 is the negative decadic logarithm of the IC50, by convention in mol/L. For `CN(C)c1cccc(C(=O)Nc2ccc(-c3nc4ncccc4o3)cc2)c1` [Compound 23], at SIRT1 [1], the negative logarithm of the IC50 (pIC50) is < 3.82.

With `N#Cc1cccc(C(=O)Nc2ccc(-c3nc4ncccc4o3)cc2)c1` [Compound 25], the pIC50 against SIRT1 [1] was 4.00 to 4.29.

On to `N#Cc1ccc(C(=O)Nc2ccc(-c3nc4ncccc4o3)cc2)cc1` [Compound 26], for which, at SIRT1 [1], the pIC50 is 4.00 to 4.29.

For `O=C(Nc1ccc(-c2nc3ncccc3o2)cc1)c1ccccc1N1CCOCC1` [Compound 28], the pIC50 against SIRT1 [1] is < 3.82.

On to `COc1ccc(C(=O)Nc2ccc(-c3nc4ncccc4o3)cc2)cc1Cl` [Compound 30], for which the pIC50 at SIRT1 [1] was < 3.82.

Consider `COc1cc(C(=O)N2CCCN(c3nc4ccccc4o3)CC2)cc(OC)c1OC` [Compound 91], for which, at SIRT1 [2], the pEC50 was < 3.82. Besides, in the test with NCI-H358 cells, the pIC50 was > 4.30.

With `Cc1nc(-c2cccc(Nc3nc4ccccc4o3)c2)cs1` [Compound 92], at SIRT1 [2], the pEC50 is 4.30 to 5.30 and the “FOLD ACT. MS” value is reported as “B (B (Fold Activation <250%))”. In the test with NCI-H358 cells, the pIC50 was 4.00 to 4.29.

As for `c1cc(Nc2nc3ccccc3o2)cc(-c2nc3ncccc3o2)c1` [Compound 93], the values for the pEC50 at SIRT1 [2] and in the test with NCI-H358 cells were 4.30 to 5.30 and < 3.82, respectively. Further, the “FOLD ACT. MS” value at SIRT1 [2] is on record as “B (B (Fold Activation <250%))”.

Turning to `CN(C)c1cccc(C(=O)Nc2ccccc2-c2nc3ncccc3o2)c1` [Compound 97], at SIRT1 [2], the pEC50 was > 5.30 and the “FOLD ACT. MS” value is “B (B (Fold Activation <250%))”. Besides, the pEC50 with NCI-H358 cells was > 4.30.

As to `O=C(Nc1cccc(-c2nc3ccncc3s2)c1)Nc1ccc2c(c1)OCO2` [Compound 99], on SIRT1 [2], the pEC50 was > 5.30 and the “FOLD ACT. MS” value is given as “A (A (Fold activation >250%))”. Further, the pEC50 in the test on NCI-H358 cells is > 4.30.

In the case of `COc1ccc(NC(=O)c2cccc(-c3nc4ncccc4o3)c2)c(OC)c1` [Compound 100], at SIRT1 [2], the pEC50 was 4.30 to 5.30 and the “FOLD ACT. MS” value is “B (B (Fold Activation <250%))”. For the same compound, the pEC50 in the test on NCI-H358 cells is > 4.30.

In the case of `COc1ccc(NC(=O)c2cccc(-c3nc4ncccc4o3)c2)cc1OC` [Compound 101], the pEC50 at SIRT1 [2] is 4.30 to 5.30; in the test with NCI-H358 cells, 3.82 to 4.00. For the same compound, the “FOLD ACT. MS” value on SIRT1 [2] is “A (A (Fold activation >250%))”.

Regarding `COc1cc(NC(=O)c2cccc(-c3nc4ncccc4o3)c2)cc(OC)c1OC` [Compound 102, 3-(oxazolo[4,5-b]pyridin-2-yl)-N-(3,4,5-trimethoxyphenyl)benzamide], at SIRT1 [2], the pEC50 was 4.30 to 5.30 and the “FOLD ACT. MS” value was “A (A (Fold activation >250%))”. Besides, in the test with NCI-H358 cells, the pEC50 was > 4.30.

Consider `c1cc(Nc2nc3ccccc3s2)nc(-c2nc3ncccc3o2)c1` [Compound 104], for which the pEC50 on SIRT1 [2] is > 5.30; in the test on NCI-H358 cells it was > 4.30. On SIRT1 [2], the “FOLD ACT. MS” value was “B (B (Fold Activation <250%))”.

On to `c1cc(Nc2nc3ccccc3o2)nc(-c2nc3ncccc3o2)c1` [Compound 105], for which, at SIRT1 [2], the pEC50 was > 5.30 and the “FOLD ACT. MS” value is given as “B (B (Fold Activation <250%))”. Further, the pEC50 in the test with NCI-H358 cells was > 4.30.

With `COc1cc(C(=O)Nc2ccccc2-c2nc3ncccc3o2)cc(OC)c1OC` [Compound 106], on SIRT1 [2], the pEC50 was > 5.30 and the “FOLD ACT. MS” value is “B (B (Fold Activation <250%))”. In addition, the pEC50 with NCI-H358 cells is > 4.30.

As for `COc1cc(C(=O)Nc2cccc(-c3nc4ccncc4s3)c2)cc(OC)c1OC` [Compound 115], on SIRT1 [2], the pEC50 was 4.30 to 5.30 and the “FOLD ACT. MS” value is recorded as “A (A (Fold activation >250%))”. For the same compound, in the test on NCI-H358 cells, the pEC50 was < 3.82.

With `COc1ccc(C(=O)Nc2cccc(-c3nc4cc(C)ccc4[nH]3)c2)cc1OC` [Compound 117], on SIRT1 [2], the pEC50 was 4.30 to 5.30 and the “FOLD ACT. MS” value was “A (A (Fold activation >250%))”. For the same compound, the pIC50 in the test with NCI-H358 cells was 4.00 to 4.29.

Take `COc1cc(C(=O)Nc2cc(CO)cc(-c3nc4ccncc4s3)c2)cc(OC)c1OC` [Compound 135]: at SIRT1 [2], the pEC50 is > 5.30 and the “FOLD ACT. MS” value is reported as “B (B (Fold Activation <250%))”. Moreover, in the test with NCI-H358 cells, the pEC50 was > 4.30.

`Cc1cc(SCc2sc(-c3ccc(C(F)(F)F)cc3)nc2C)ccc1OCC(=O)O` [Compound 291] gave a pIC50 against SIRT1 [1] of 4.00 to 4.29.
